Experimental data as given in US9309547B2, “Methods for making tocoflexols and analogues thereof” (The Board of Trustees of the University of Arkansas, priority 2012, dated 2016).
Several values for one entry are separate records, joined by “and”; a condition that tells them apart may be missing. Equal entries are not always repeated.

Tests used:
rat liver microsomes = assay: Inhibition of lipid peroxidation in rat liver microsomes treated with TBHP; type: biochemical, Wistar rat; conditions: FIG. 2; for IC50: 1 mg/ml microsomal protein, 37° C. 1 hour preincubation, 200 μM TBHP for 30 min
Description: One of the most well-known properties of the vitamin E components is their ability to prevent lipid peroxidation. See Traber et al. (2011) Free Radis Biol Med 51(5):1000-1013. Briefly, the antioxidant activity of vitamin E analogs was evaluated in rat liver microsomes by measuring inhibition of lipid peroxidation after TBHP ([…]) treatment. Wistar rat liver microsomes (BD Biosciences) were diluted in phosphate buffer, 0.1 M (pH 7.4), at the final protein concentration of 1 mg/ml. The microsomes were treated with different concentrations of tocols (diluted with DMSO) and incubated at 37° C. for 1 hour before inducing lipid peroxidation with 200 μM TBHP (DMSO) for 30 min.

Mouse NSC 34 cells = assay: Cell uptake of tocols by NSC 34 cells (GC/MS); type: cell-based; conditions: final concentration 5 μM, 0-24 hours, FIG. 1
Description: The experiment was carried out as described below. Mouse NSC 34 cells were grown in Dulbecco's modified Eagle's medium (DMEM) supplemented with 10% fetal bovine serum and 1% penicillin/streptomycin at 37° C. in a humidified atmosphere containing 95% air and 5% CO2. The cell culture medium was replaced every 2 or 3 days with fresh medium containing serum and antibiotic. Cells were reseeded when the cell monolayers became confluent. For the experiments, cells at passages 15-27 were seeded in 6-well plates at 1 million cells per well. 5 mM test solutions were prepared in DMSO. NSC 34 monolayers above 80% confluency were treated with 2 μl of test compound (final concentration 5 μM) for 0, 1, 2, 4, 8, 12, and 24 hours. […] Hexane extracts were dried under nitrogen and were quantitatively transferred to a deactivated glass micro insert using methylene chloride and dried under nitrogen. […] Protein concentration was determined using the Pierce BCA protein assay kit. The derivatized samples were analyzed using GC/MS by single ion monitoring (Agilent 5975 GC/MSD; Agilent Technologies, Palo Alto, Calif.). […] Samples were analyzed using helium as the carrier gas (head pressure of 27 psi), 1 μl splitless injection, the injector temperature was 275° C., the column temperature was maintained at 220° C. for 2 min followed by a gradient of 25° C./min to 300° C., and remained at that temperature for 10 min. […]

| IC50 (rat liver microsomes) [µM] | cell-uptake compared with that of α-tocopherol (Mouse NSC 34 cells) | SMILES | antioxidant potential, times that of α-tocopherol (AT) (rat liver microsomes; rat liver microsomes treated with 200 μM TBHP) |
| --- | --- | --- | --- |
| 6.78 | – | Cc1c(C)c2c(c(C)c1O)CC[C@@](C)(CCC[C@H](C)CCC[C@H](C)CCCC(C)C)O2 [AT, α-tocopherol, reference compound] | – |
| 1.35 | almost double | CC(C)=CCC[C@@H](C)CCC/C(C)=C/CC[C@]1(C)CCc2cc(O)cc(C)c2O1 [δ-tocoflexol, (2R,8′S)-δ-tocoflexol] | > 5 times and 5 times |
